{"source": "paper PMC3866913", "about": "(Journal of medicinal chemistry, 2013)", "key": {"α7-nAChR [1]": {"molecular_target": "T1, α7-nAChR (Rattus norvegicus, UniProt Q05941)", "T1 sequence (Q05941 23-502)": "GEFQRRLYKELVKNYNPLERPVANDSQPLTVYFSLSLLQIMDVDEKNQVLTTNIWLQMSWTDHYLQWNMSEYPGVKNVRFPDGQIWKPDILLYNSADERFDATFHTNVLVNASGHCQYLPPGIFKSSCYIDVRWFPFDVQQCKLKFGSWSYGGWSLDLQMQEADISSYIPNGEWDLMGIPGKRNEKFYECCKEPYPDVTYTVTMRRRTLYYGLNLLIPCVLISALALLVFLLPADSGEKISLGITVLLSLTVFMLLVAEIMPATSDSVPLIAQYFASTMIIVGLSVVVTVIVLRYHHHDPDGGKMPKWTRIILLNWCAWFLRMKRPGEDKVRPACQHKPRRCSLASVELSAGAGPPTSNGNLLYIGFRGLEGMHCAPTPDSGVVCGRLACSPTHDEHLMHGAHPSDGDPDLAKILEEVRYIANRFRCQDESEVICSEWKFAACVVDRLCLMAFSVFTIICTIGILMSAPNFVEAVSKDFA", "conditions": "read-out: KD of radiotracer at α7-nAChR; cited from earlier work"}, "α7-nAChR [2]": {"molecular_target": "T2, α7-nAChR (Mus musculus, UniProt P49582)", "T2 sequence (P49582 23-502)": "as the sequence (Q05941 23-502) above, with A402T counted along it", "set-up": "species or system CD-1 mice", "conditions": "in vivo"}, "α7-nAChR [3]": {"molecular_target": "T2, α7-nAChR", "assay": "Blocking of [18F]7a with non-α7-nAChR CNS drugs in CD-1 mice", "format": "in vivo", "conditions": "2 mg/kg, s.c., 10 min before radiotracer, 90 min after tracer"}, "α7-nAChR [4]": {"molecular_target": "α7-nAChR", "conditions": "read-out: α7-nAChR Ki, cited from earlier work"}, "α2β2-nAChR": {"molecular_target": "α2β2-nAChR (Rattus norvegicus, UniProt P12389+P12390)", "sequence (P12389 28-511)": "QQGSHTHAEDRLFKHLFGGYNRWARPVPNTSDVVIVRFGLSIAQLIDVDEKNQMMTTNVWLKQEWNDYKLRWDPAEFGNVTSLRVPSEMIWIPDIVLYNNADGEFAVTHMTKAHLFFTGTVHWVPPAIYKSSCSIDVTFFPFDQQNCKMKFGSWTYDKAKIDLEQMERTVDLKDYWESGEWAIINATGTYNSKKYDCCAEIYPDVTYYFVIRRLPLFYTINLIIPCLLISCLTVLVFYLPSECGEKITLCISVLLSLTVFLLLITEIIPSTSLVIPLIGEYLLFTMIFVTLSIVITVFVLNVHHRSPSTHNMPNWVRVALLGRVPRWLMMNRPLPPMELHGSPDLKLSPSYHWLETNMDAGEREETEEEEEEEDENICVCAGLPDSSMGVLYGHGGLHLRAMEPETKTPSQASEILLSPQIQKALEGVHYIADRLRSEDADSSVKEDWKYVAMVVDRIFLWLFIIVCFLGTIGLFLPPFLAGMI", "sequence (P12390 25-500)": "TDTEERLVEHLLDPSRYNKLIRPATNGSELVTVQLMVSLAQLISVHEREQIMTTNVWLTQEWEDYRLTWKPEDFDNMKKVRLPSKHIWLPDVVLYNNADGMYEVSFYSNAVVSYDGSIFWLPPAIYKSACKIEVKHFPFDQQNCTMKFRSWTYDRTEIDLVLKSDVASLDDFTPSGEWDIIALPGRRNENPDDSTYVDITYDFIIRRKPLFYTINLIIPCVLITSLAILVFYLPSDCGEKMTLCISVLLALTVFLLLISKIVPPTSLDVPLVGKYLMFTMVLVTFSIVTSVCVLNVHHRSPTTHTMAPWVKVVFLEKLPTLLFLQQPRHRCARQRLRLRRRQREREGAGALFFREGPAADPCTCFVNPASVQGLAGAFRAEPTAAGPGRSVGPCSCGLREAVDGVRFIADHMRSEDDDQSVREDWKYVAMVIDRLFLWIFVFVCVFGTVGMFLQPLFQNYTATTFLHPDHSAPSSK", "assay": "Heteromeric nAChR binding, transfected HEK293 membranes, [3H]epibatidine"}, "[5]": {"format": "in vivo", "conditions": "mice, i.v."}, "α7-nAChR [6]": {"molecular_target": "T2, α7-nAChR", "conditions": "in vivo"}, "α7-nAChR [7]": {"molecular_target": "T1, α7-nAChR", "assay": "biochemical", "format": "binding", "conditions": "two independent assays, each in duplicate"}}, "note": "Where two headings read alike, the source gives them in different places.", "data": [{"compound": "[^125I]α-Bungarotoxin", "values": [{"measurement": "Kd", "setting": "α7-nAChR [1]", "value": 0.7, "unit": "nM"}]}, {"compound": "O=C(Oc1ccc(Br)cc1)N1CCN2CCC1CC2", "note": "[compound 1]", "values": [{"measurement": "blockade of [18F]7a binding in mouse brain", "setting": "α7-nAChR [2]", "value": "dose dependent blockade in all regions studied"}, {"measurement": "effect on accumulation of [18F]7a in mouse brain regions", "setting": "α7-nAChR [3]", "value": "reduced accumulation of radioactivity"}, {"measurement": "Ki", "setting": "α7-nAChR [4]; ref [58]", "value": 22, "unit": "nM"}]}, {"compound": "Cc1nccn1CC1CCc2c(c3ccccc3n2C)C1=O", "note": "(centres unmarked) [ondansetron, Ondansetron]", "values": [{"measurement": "effect on accumulation of [18F]7a in mouse brain regions", "setting": "α7-nAChR [3]", "value": "absence of blockade"}]}, {"compound": "O=S1(=O)c2cc(N3CCN4CCC3CC4)ccc2-c2cccc(F)c21", "note": "[7a, 3-(1,4-Diazabicyclo[3.2.2]nonan-4-yl)-6-fluorodibenzo[b,d]thiophene 5,5-dioxide]", "values": [{"measurement": "Ki", "setting": "α2β2-nAChR; read-out: α2β2 Ki, stably transfected HEK293 cells, [3H]epibatidine 0.5 nM", "value": "> 10000", "unit": "nM"}, {"measurement": "behavioral or locomotor activity changes", "setting": "[5]; 0.3 mg/kg", "value": "Neither behavioral nor locomotor activity changes were observed"}]}, {"compound": "O=c1cccc2n1C[C@@H]1CNC[C@H]2C1", "note": "[cytisine]", "values": [{"measurement": "blockade of [18F]7a accumulation in mouse brain", "setting": "α7-nAChR [6]", "value": "insignificant reduction of radioactivity accumulation in all regions studied"}]}, {"compound": "O=S1(=O)c2ccc(F)cc2-c2ccc(N3CCN4CCC3CC4)cc21", "note": "[7c, 7-(1,4-Diazabicyclo[3.2.2]nonan-4-yl)-2-fluorodibenzo[b,d]thiophene 5,5-dioxide]", "values": [{"measurement": "behavioral or locomotor activity changes", "setting": "[5]; 0.2 mg/kg", "value": "Neither behavioral nor locomotor activity changes were observed"}]}, {"compound": "O=S1(=O)c2ccccc2-c2ccc(N3CCN4CCC3CC4)cc21", "note": "[compound 5, 3-(1,4-diazabicyclo[3.2.2]nonan-4-yl)dibenzo[b,d]thiophene 5,5-dioxide]", "values": [{"measurement": "blockade of [18F]7c accumulation in mouse brain", "setting": "α7-nAChR [2]", "value": "Dose dependent blockade"}, {"measurement": "Ki", "setting": "α7-nAChR [4]", "value": 0.023, "unit": "nM"}]}, {"compound": "O=S1(=O)c2ccccc2-c2c(N3CCN4CCC3CC4)ccc(F)c21", "note": "[7e, 1-(1,4-Diazabicyclo[3.2.2]nonan-4-yl)-4-fluorodibenzo[b,d]thiophene 5,5-dioxide]", "values": [{"measurement": "Ki", "setting": "α2β2-nAChR", "value": "> 10000", "unit": "nM"}]}, {"compound": "CN1CCC[C@H]1c1cccnc1", "note": "[nicotine]", "values": [{"measurement": "blockade of [18F]7a accumulation in mouse brain", "setting": "α7-nAChR [6]", "value": "significant blockade in all regions, except the nAChR-poor cerebellum"}]}, {"compound": "O=S1(=O)c2cc(N3CCN4CCC3CC4)ccc2-c2cccc(I)c21", "note": "[compound 14, 3-(1,4-Diazabicyclo[3.2.2]nonan-4-yl)-6-iododibenzo[b,d]thiophene 5,5-dioxide]", "values": [{"measurement": "Ki", "setting": "α7-nAChR [7]", "value": 1.93, "unit": "nM"}]}]}
